Results as given in patent US5770688A, “Method and composition for the treatment of mammalian HIV infection” (GSF-Forschungszentrum fur Umwelt und Gesundheit GmbH, priority 1989, dated 1998).

Key:
[1] = test system: KE37-1 (uninfected) cells; experiment: MTT test, growth of non-infected cells; type: cell-based; conditions: KE37-1, seven days incubation; 10080 min
Description: (§1) The KE37-1 (uninfected) and KE37-1/111β (infected) cell lines discussed below are commercially available from the Dr. Robert Gallows Laboratory of the NIH in the United States of America and grown in a medium of RPMI 1640 (GIBCO) and further supplemented with 10% fetal calf serum which contained approximately 100 units of penicillin, 100 μg streptomycin, and approximately 0.25 μg fungizone (Amphotericin B) per milliliter. The human mesenchymal cell lines LC5 and LC5-HIV, discussed below, are deposited with the Collection De L'Institut Pasteur of Paris, France on Mar. 9, 1989 and given the accession numbers I-842 and I-843, respectively. The LC5 and LC5-HIV cell lines were grown in a medium of RPMI 1640 and supplemented with 10% fetal calf serum.
Referring more particularly to FIGS. 1-4, melittin (Seq. ID NO:1) and its specified analogues were tested for their effect on HIV-infected T-lymphoma cells. In this regard the following cell lines were employed in the testing: KE37-1 (uninfected) and KE37-1/111S (infected with HTLV-111β). These infected cells were incubated for a period of seven days under test conditions at a temperature of 37° C. and in the presence of 5% CO2. […] The optical density (OD) of the solution was determined at=600 nm. […]

phospholipase A2 = conditions: anterior pituitary; cited from earlier work
cell free HIV = experiment: influence of melittin on cell free HIV (P24 determination, infectivity); conditions: incubation of cell free HIV
non-infected cells = experiment: MTT toxicity/killing of non-infected cells (Biomek 1000); type: cell-based
Description: as §1, with “The LC5 and LC5-HIV cell lines were grown in a medium of RPMI 1640 and supplemented with 10% fetal calf serum.” left out
In the present series of experiments HIV release was tested by a fully automated laboratory robot system and which is manufactured by Beckman Instruments as the Biomek 1000. […] The number of living cells are quantified by MTT, that is by a metabolic (dehydrogenase) test. […] The toxic effect is detected at the time of the experiment and not in a separate control experiment. Furthermore, the supernatant, and which contains released virus cells from the period of time which elapsed from the last wash, and which may vary from 24 hours to 7 days, is collected from the culture, and an aliquot is saved for virus quantification by employing antigen or viral enzyme reverse transcriptase (RT). […]

[2] = in vitro persistence of melittin within cells
reverse transcriptase = experiment: activity of reverse transcriptase in the supernatant of treated, HIV infected cell culture; type: cell-based
Description: Referring more particularly to FIGS. 1-4, melittin (Seq. ID NO:1) and its specified analogues were tested for their effect on HIV-infected T-lymphoma cells. In this regard the following cell lines were employed in the testing: KE37-1 (uninfected) and KE37-1/111S (infected with HTLV-111β). These infected cells were incubated for a period of seven days under test conditions at a temperature of 37° C. and in the presence of 5% CO2. A culture medium of RPMI 1640 (GIBCO) was employed and was further supplemented with 10% fetal calf serum which contained approximately 100 units of penicillin, 100μ of streptomycin, and approximately 0.25μ fungizone (Amphotericin B) per milliliter. This equals 1 milliliter of antibiotic-antimycotic solution (GIBCO Catalogue No. 043-05240 per 100 ml. of medium.) After a one week incubation period in the presence of various concentrations of the above-identified substances, which were added fresh daily to the medium, the following tests were carried out with the cultures. A first test was conducted for purposes of determining the relative cell concentration as a function of the number of HIV infected cells present by employing an MTT test. […] The optical density (OD) of the solution was determined at=600 nm. […]

## Gly-Ile-Gly-Ala-Val-Leu-Lys-Val-Leu-Thr-Thr-Gly-Leu-Pro-Ala-Leu-Ile-Ser-Trp-Ile-Lys-Arg-Lys-Arg-Gln-Gln-Amide [melittin]
[1]
  concentration toxic to non-infected cells: above 5 μg per ml
Phospholipase A2
  effect on phospholipase A2: stimulates endogenous phospholipase A2 in the anterior pituitary leading to growth hormone secretion
Cell free HIV
  detection of the P24 antigen: does not impair the detection of the P24 antigen
  virus infectivity of cell free HIV: cause the virus infectivity to be reduced
non-infected cells
  critical concentration at which all non-infected cells were killed: 10 μg per ml
[2]
  time detectable in tact within the cells: more than 48 hours
Reverse transcriptase; 2.5 μg per ml, FIG. 2
  activity of reverse transcriptase (RT%): revert substantially back to zero
Reverse transcriptase; subtoxic concentrations
  activity of reverse transcriptase, in words: inhibition of reverse transcriptase
